Measured values from PMC8262137 (Biochemical pharmacology, 2020).

Biological target: P-glycoprotein (Pgp; Abcb1a, MDR3) (Mus musculus, UniProt P21447)
Test: intrinsic protein fluorescence quenching
Format: binding

P-glycoprotein (Pgp; Abcb1a, MDR3), sequence (P21447 whole entry): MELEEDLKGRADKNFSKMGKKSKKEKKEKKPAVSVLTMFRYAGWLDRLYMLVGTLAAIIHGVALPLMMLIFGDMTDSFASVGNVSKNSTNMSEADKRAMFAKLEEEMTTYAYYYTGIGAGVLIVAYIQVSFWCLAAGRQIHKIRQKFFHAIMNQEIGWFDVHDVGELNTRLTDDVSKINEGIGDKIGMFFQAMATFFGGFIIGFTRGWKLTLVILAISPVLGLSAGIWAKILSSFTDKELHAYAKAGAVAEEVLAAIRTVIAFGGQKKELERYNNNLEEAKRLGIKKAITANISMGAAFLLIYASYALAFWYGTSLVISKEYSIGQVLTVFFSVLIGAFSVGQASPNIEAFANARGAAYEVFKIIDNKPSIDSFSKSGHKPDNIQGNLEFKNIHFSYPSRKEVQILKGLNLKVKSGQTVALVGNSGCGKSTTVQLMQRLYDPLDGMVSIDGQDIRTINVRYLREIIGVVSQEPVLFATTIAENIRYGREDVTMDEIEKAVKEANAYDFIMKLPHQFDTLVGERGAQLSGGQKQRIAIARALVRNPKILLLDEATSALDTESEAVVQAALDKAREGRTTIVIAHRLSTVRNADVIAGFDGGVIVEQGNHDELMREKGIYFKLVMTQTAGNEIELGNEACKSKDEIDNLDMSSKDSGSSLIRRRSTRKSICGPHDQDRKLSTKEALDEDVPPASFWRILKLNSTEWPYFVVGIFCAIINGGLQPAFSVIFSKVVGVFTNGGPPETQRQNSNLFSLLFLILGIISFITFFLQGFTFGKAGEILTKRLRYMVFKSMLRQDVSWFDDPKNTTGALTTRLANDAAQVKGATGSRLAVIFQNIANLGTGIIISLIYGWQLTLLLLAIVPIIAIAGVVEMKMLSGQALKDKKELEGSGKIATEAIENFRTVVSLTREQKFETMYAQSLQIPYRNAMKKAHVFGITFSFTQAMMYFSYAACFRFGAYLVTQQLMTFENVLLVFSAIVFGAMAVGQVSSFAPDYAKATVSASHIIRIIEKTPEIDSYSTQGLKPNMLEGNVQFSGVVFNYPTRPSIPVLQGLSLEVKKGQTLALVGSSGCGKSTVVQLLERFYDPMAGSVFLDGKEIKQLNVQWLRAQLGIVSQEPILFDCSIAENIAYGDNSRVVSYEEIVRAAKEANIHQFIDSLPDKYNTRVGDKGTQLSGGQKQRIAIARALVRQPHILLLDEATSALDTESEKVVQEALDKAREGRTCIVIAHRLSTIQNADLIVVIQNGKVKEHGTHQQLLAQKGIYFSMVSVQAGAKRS

Kd	Structure (SMILES)
16.3 ± 0.7 µM	COc1cccc2c1C(=O)c1c(O)c3c(c(O)c1C2=O)C[C@@](O)(C(C)=O)C[C@@H]3O[C@H]1C[C@H](N)[C@H](O)[C@H](C)O1 [DNR, daunorubicin]
16.9 ± 1.3 µM	COc1cccc2c1C(=O)c1c(O)c3c(c(O)c1C2=O)C[C@@](O)(C(=O)CO)C[C@@H]3O[C@H]1C[C@H](N)[C@H](O)[C@H](C)O1 [DOX, doxorubicin]
